Test results as given in patent US12414968B2, “Compositions comprising bacterially derived minicells and methods of using the same” (EnGeneIC Molecular Delivery Pty Ltd, priority 2018, dated 2025).

Columns and labels:
[1] = test system: Adreno-cortical cancer cell lines ACC01 and ACC07; test: MTS cell proliferation assay, ACC01 and ACC07; conditions: 72 hrs, lines derived from Stage IV patients
Protocol: All cells were incubated for a further 72 hrs followed by the colorimetric MTS cell proliferation assay (Cory et al., Cancer Commun., 3(7): 207-12 (1991)) using the CellTiter 96 AQueous One Solution Cell Proliferation Assay (Promega Corp., Madison, Wis., USA), according to the manufacturer's instructions. The colorimetric measurements were read at 490 nm.

[2] = test system: human breast cancer cell line MDA-MB-468; test: MTS cell proliferation assay, MDA-MB-468; type: cell-based; conditions: 72 hrs
[3] = test system: MiaPaca-2 cells; test: MTS cell proliferation assay, MiaPaca-2; type: cell-based, human; conditions: 72 hrs
[4] = test system: human peripheral blood monocytes (PBMCs); conditions: multiple donors with different STING genotypes; cited from earlier work
[5] = test system: human STING alleles; conditions: Corrales et al., 2015, Fu et al.; cited from earlier work
[6] = test system: Glioblastoma cell line U87-MG; test: MTS cell proliferation assay, U87-MG; type: cell-based; conditions: 72 hrs
[7] = test system: human colorectal cancer cell lines Caco-2 and HCT116; test: MTS cell proliferation assay, Caco-2 and HCT116; type: cell-based; conditions: 72 hrs
[8] = test system: bone marrow derived dendritic cells (BMDC) with CT26Ep12.1 cells; test: BMDC / treated CT26Ep12.1 co-culture; type: cell-based, mouse; conditions: 48 h co-incubation
Protocol: The effect of tumor cell death in response to Ep-EDV, Ep-EDV-682, and 682 treatment on dendritic cell maturation was also examined (FIGS. 27E-27I). Bone marrow derived dendritic cells (BMDC) were co-incubated with treated tumor cells (4T1 and CT26Ep12.1) for 48 h, followed by assessment of the production of the type 1 interferons IFNα and IFNβ. Increases in type 1 interferon production by dendritic cells is well established as a mechanism of dendritic cell maturation and enhanced antigen presentation as well as being vital for their interaction with other immune cell subsets including NK cells and T-cells (Fitzgerald-Bocarsly and Feng, 2007; Simmons et al., 2012).
Bone Marrow Derived DCs (BMDC): Bone marrow was isolated from the femurs and tibias of Balb/c mice. […]
Macrophage and DC/Tumor Cell Co-cultures: CT26Ep12.1 and 4T1 cells were harvested with Versene (Gibco) and cells were collected in 1 mL Eppendorf tubes. […] RAW264.7/tumor cell co-cultures were collected using a cell scraper and samples were stained with DAPI (Sigma), anti-CD45 Brilliant Violet 510 (BioLegend), anti-CD86 APC-Cy7, and anti-CD206 AF488 and assessed by flow cytometry. […] RNA concentration was determined on an Eppendorf biophotometer plus. […] Data was exported to excel and the relative quantitation was calculated from the ΔΔCt.

[9] = test system: MiaPaca-2 GemR cells; test: MTS cell proliferation assay, MiaPaca-2 GemR; type: cell-based, human; conditions: 72 hrs
[10] = test system: MDA-MB 468 xenografts; test: MDA-MB 468 breast cancer xenograft, EDVsDox with IFN-γ (FIGS. 21, 22); type: in vivo, Balb/c nu/nu mice; conditions: IFN-γ 0.5 × 10^4 IU per dose
Description: Breast cancer: To study the anti-tumor effects of combining ^EGFREDVsDox and IFN-γ in a breast cancer model, MDA-MB 468 xenografts in Balb/c nu/nu mice were established and divided into four groups receiving different treatment combinations by intravenous tail vein injection. Group 1 received sterile physiological saline (FIG. 21, open diamonds). Group 2 received IFN-γ (0.5×10^4 IU) per dose (FIG. 21, solid triangles). Group 3 received ^EGFREDVsDox (FIG. 21, solid squares). Group 4 received ^EGFREDVsDox and IFN-γ (0.5×10^4 IU) per dose (FIG. 21, solid circles).

[11] = test system: A549 (lung cancer) xenografts; test: A549 xenograft, EDVsDox with IFN-γ (FIG. 20); type: in vivo, Balb/c nu/nu mice; conditions: i.v. tail vein; IFN-γ 0.5 × 10^4 IU per dose
Description: Lung cancer: To study the anti-tumor effects of combining ^EGFREDVsDox and IFN-γ (type II IFN) in a lung cancer model, A549 (lung cancer) xenografts in Balb/c nu/nu mice were established and divided into four groups receiving different treatment combinations by intravenous tail vein injection. Group 1 received sterile physiological saline (FIG. 20, open diamonds). Group 2 received IFN-γ (0.5×10^4 IU) per dose (FIG. 20, solid triangles). Group 3 received ^EGFREDVsDox (FIG. 20, solid squares). Group 4 received ^EGFREDVsDox and IFN-γ (0.5×10^4 IU) per dose (FIG. 20, solid circles).

**Q.** Which “cytotoxic effect / resistance of the cell lines” value (“cytotoxic effect / resistance” for short) [1] does the source give for `CC(=O)O[C@H]1C(=O)[C@@]2(C)[C@H]([C@H](OC(=O)c3ccccc3)[C@]3(O)C[C@H](OC(=O)[C@H](O)[C@@H](NC(=O)c4ccccc4)c4ccccc4)C(C)=C1C3(C)C)[C@]1(OC(C)=O)CO[C@@H]1C[C@@H]2O` [paclitaxel] here?
**A.** Its value is “highly resistant”.

**Q.** And the “inhibition of proliferation / resistance of the cell line” value [2]?
**A.** Its value is “resistant”.

**Q.** Which “cytotoxic effect / resistance” value [1] does the source give for `COC(=O)c1cc2c([nH]1)C(=O)C=C1N(C(=O)c3cc4cc(OC)c(OC)c(OC)c4[nH]3)C[C@H]3C[C@]123` [duocarmycin] here?
**A.** The value was “potent cytotoxic effects”.

**Q.** With `O=C1[O][Pt]2([NH][C@@H]3CCCC[C@H]3[NH]2)[O]C1=O` [oxaliplatin] as the molecule, how does the “inhibition of proliferation / resistance of the cells” value [3] read?
**A.** Its value is “resistant”.

**Q.** With `Clc1ccc(C(c2ccccc2Cl)C(Cl)Cl)cc1` (stereo not drawn) [mitotane] as the molecule, how does the “cytotoxic effect / resistance” value [1] read?
**A.** The value was “highly resistant”.

**Q.** Which “expression of IFN-β” value [4] does the source give for `Nc1ncnc2c1ncn2[C@@H]1O[C@@H]2COP(O)(=S)O[C@@H]3C(O)[C@@H](COP(O)(=S)O[C@H]2[C@H]1O)O[C@H]3n1cnc2c(N)ncnc21` (stereo partly drawn) [ML RR-S2 CDA] here?
**A.** The value was “dose-dependent expression of IFN-β”.

**Q.** And the “activation of human STING alleles” value [5]?
**A.** Its value is “broadly activate all known human STING alleles”.

**Q.** With `CN(Cc1cnc2nc(N)nc(N)c2n1)c1ccc(C(=O)N[C@@H](CCC(=O)O)C(=O)O)cc1` [mathotrxate] as the molecule, how does the “inhibition of proliferation / resistance of the cells” value [3] read?
**A.** The value was “resistant”.

**Q.** With `CC(=O)O[C@@]12CO[C@@H]1C[C@H](O)[C@@]1(C)C(=O)[C@H](O)C3=C(C)[C@@H](OC(=O)[C@H](O)[C@@H](NC(=O)OC(C)(C)C)c4ccccc4)C[C@@](O)([C@@H](OC(=O)c4ccccc4)[C@H]21)C3(C)C` [docetaxel] as the molecule, how does the “inhibition of proliferation / resistance of the cell line” value [2] read?
**A.** Its value is “resistant”.

**Q.** Which “inhibition of proliferation / resistance of the cells” value [3] does the source give for `CCc1c2c(nc3ccc(OC(=O)N4CCC(N5CCCCC5)CC4)cc13)-c1cc3c(c(=O)n1C2)COC(=O)[C@]3(O)CC` [irinotecan] here?
**A.** Its value is “resistant”.

**Q.** With `CC(=O)O[C@H]1C(=O)[C@@]2(C)[C@H]([C@H](OC(=O)c3ccccc3)[C@]3(O)C[C@H](OC(=O)[C@H](O)[C@@H](NC(=O)c4ccccc4)c4ccccc4)C(C)=C1C3(C)C)[C@]1(OC(C)=O)CO[C@@H]1C[C@@H]2O` [paclitaxel IVAX, paclitaxel] as the molecule, how does the “inhibition of proliferation / resistance of the cell line” value [6] read?
**A.** Its value is “resistant”.

**Q.** Which “inhibition of proliferation / resistance of the cells” value [3] does the source give for `O=c1[nH]cc(F)c(=O)[nH]1` [5-Fluoro Uracil (5-FU), 5-Fluoro Uracil] here?
**A.** The value was “resistant”.

**Q.** With `COc1cccc2c1C(=O)c1c(O)c3c(c(O)c1C2=O)C[C@@](O)(C(=O)CO)C[C@@H]3O[C@H]1C[C@H](N)[C@H](O)[C@H](C)O1` [doxorubicin] as the molecule, how does the “inhibition of proliferation / resistance of the cell lines” value [7] read?
**A.** Its value is “resistant”.

**Q.** And the “inhibition of proliferation / resistance of the cells” value [3]?
**A.** The value was “resistant”.

**Q.** What about the “increase in IFNβ mRNA production” value [8] of the same molecule?
**A.** The value was about 5 fold.

**Q.** What about the “inhibition of proliferation / resistance of the cell line” value [6] of the same molecule?
**A.** The value was “resistant”.

**Q.** And the “cytotoxic effect / resistance” value [1]?
**A.** Its value is “highly resistant”.

**Q.** And the “inhibition of proliferation / resistance of the cell line” value [2]?
**A.** The value was “resistant”.

**Q.** Which “cytotoxic effect / resistance” value [1] does the source give for `O=C1c2c(O)ccc(O)c2C(=O)c2c(NCCNCCO)ccc(NCCNCCO)c21` [mitoxantrone] here?
**A.** The value was “highly resistant”.

**Q.** With `Nc1ccn([C@@H]2O[C@H](CO)[C@@H](O)C2(F)F)c(=O)n1` [gemzar] as the molecule, how does the “inhibition of proliferation / resistance of the cells” value [3] read?
**A.** Its value is “resistant”.

**Q.** And the “inhibition of proliferation / resistance of the cells” value [9]?
**A.** Its value is “resistant”.

B1: IFN-γ: type II interferon, given free at 0.5 or 0.75 × 10^4 IU per dose (protein, UniProt P01580 23-155, looked up)
Interferon gamma: HGTVIESLESLNNYFNSSGIDVEEKSLFLDIWRNWQKDGDMKILQSQIISFYLRLFEVLKDNQAISNNISVIESHLITTFFSNSKAKKDAFMSIAKFEVNNPQVQRQAFNELIRVVHQLLPESSLRKRKRSRC
**Q.** Which results are given for B1?
**A.** Results: anti-tumor efficacy, Exp. #2 (FIG. 22) ([10]; listed as IFN-): no anti-tumor efficacy; Results: anti-tumor efficacy, Exp. #1 (FIG. 21) ([10]; i.v. tail vein): no anti-tumor efficacy; Results: anti-tumor efficacy [11]: no anti-tumor efficacy
